Assay results from patent US20240415819A1, “MACROCYCLIC COMPOUNDS AS PROTEASOME SUBUNIT BETA TYPE-5 INHIBITORS” (Lead Discovery Center GmbH, priority 2021, published 2024).

Legend:
[1] = molecular target: T1, β5 subunit of the human constitutive proteasome (CPS) (Homo sapiens, UniProt P28074); experiment: β5 inhibition assay, human constitutive proteasome (Suc-LLVY-AMC); format: biochemical; conditions: IC50 class, Suc-LLVY-AMC substrate
T1 construct: purchased Boston Biochem E-360
Method: The enzymatic activity of the β5 subunit of the human constitutive proteasome (CPS) is analyzed. In another assay, which differs from the assay of the human constitutive proteasome only in using the human immunoproteasome (IPS) the enzymatic activity of the β5 subunit of the human immunoproteasome (IPS) is analyzed. […] Inhibition is indicated as IC50 [nM] (“-”=not measured).

[2] = molecular target: T2, β5 subunit of the human immunoproteasome (IPS) (Homo sapiens, UniProt P28062); experiment: β5 inhibition assay, human immunoproteasome (Suc-LLVY-AMC); format: biochemical; conditions: IC50 class, Suc-LLVY-AMC substrate
T2 construct: purchased Boston Biochem E-370
How it was run: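 β5 activity is read as liberated AMC fluorescence (355/460 nm) after 4 h dark reaction at RT with 22.6 μM Suc-LLVY-AMC, stopped by 1 μM bortezomib. Beforehand, 1 nM human IPS and compound sat 10 min at RT in HEPES pH 7.5 buffer containing NaCl, 0.02% SDS and DTT.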

HT-29 cells = experiment: CellTiter-Glo luminescent cell viability assay with HT-29 cells (72h incubation); format: cell-based, human; conditions: Homo sapiens, HT-29, HT29 cells, read-out: CTG HT29
How it was run: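 Viability read as CellTiter-Glo luminescence after 72 h compound exposure, with 10 μM staurosporine and DMSO as control wells. Seeding 400 cells per well, compound added 24 h post-plating; IC50 from curve fitting.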

[3] = tested on: A549 (human lung carcinoma cell line); experiment: Glo assay of A549 cells (Table 3; ProteasomeGlo plating scheme); format: cell-based; conditions: Homo sapiens; A549 cells; read-out: PGLo A549
How it was run: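 Compound treatment lasts 105 minutes at 37° C. under 5% CO2. Suc-LLVY-Glo substrate premixed with detection reagent (60 min at room temperature) is then added directly to the cells, and luminescence after 10-15 min in the dark gives the IC50 in nM.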

Karpas cells = experiment: Glo assay of Karpas cells (Table 3; ProteasomeGlo plating scheme); format: cell-based; conditions: read-out: Pglo Karpas
Text: Inhibition is indicated as IC50 [nM] (“-”=not measured). […] • Chymotrypsin-Like Cell-Based Proteasome-GloTM Assay (Promega; […]) • Cell culture 384-well plates (Greiner BioOne; 781080) • Dispensing cassette, MultiDrop Standard tube dispensing cassette (Thermo Scientific; 24072670) • DPBS (Pan BioTech; P04-36500) • Cell culture 384-well plates (Greiner BioOne; 781080) • CPD source plate: diamond-shape plate (Labcyte; LP-0200) • Intermediate plate (Labcyte; P-05525) [table] • a. Remove the plates with cells from the incubator. • b. Take all the plates including the compound plate, intermediate plate and Staurosporine plate to the ECHO. • c. Click on “Open” in the ECHO software and select the protocol “QLI5_25ul_30 uM-Grenier”. • d. Follow the on-screen prompts and instructions once you click “Start” to insert the compound plate, intermediate plate and destination plates. • e. Change the final number of destination plates on the program. • f. Follow the on-screen prompts and instructions once you click “Start” to load the Staurosporine and destination plates. • g. Once all the compounds, DMSO and Staurosporine have been transferred, place the destination plates in a wet tissue box. • h. Place the destination plates back into the incubator and incubate at 37° C., 5% CO2 for 105 minutes. • i. Re-seal all the compound+Stauro diamond and intermediate plates and store in the dark. Chymotrypsin like ProteasomeGlo Assay • 1. Thaw the components of the ProteasomeGlo assay at room temperature including the ProteasomeGlo Buffer, the lyophilized Luciferin Detection Reagent and the Suc-LLVY-Glo Substrate. • 2. Reconstitute the Luciferin Detection Reagent in the amber coloured bottle by adding 50 ml of the ProteasomeGlo Buffer. • 3. Vortex the Suc-LLVY-Glo Substrate briefly to reconstitute the Substrate well. • 4. Spin down the Substrate and add 250 μl of the Substrate to the reconstituted Luciferin Detection Reagent from step 2. • 5. Briefly vortex the amber bottle with the mix to prepare a homogenous solution. • 6. Place the mix prepared in step 5 to sit at room temperature for 60 minutes. • 7. After 60 minutes, pipette 25 μl of the mix from step 5 into all wells with the cells. • 8. Shake the plates for 2-5 minutes to ensure the complete mixing of the ProteasomeGlo reagent with the cells. • 9. Leave the plates in the dark for 10-15 minutes. • 10. Measure the luminescence read-out using the Viktor and the protocol “Luminescence_384Well_0.2 sec”. (Note: The Protoeasome-GloTM Reagent (combined Proteasome-GloTM Substrate, Proteasome-GloTM Buffer and Luciferin Detection Reagent) can be stored at 4° C. or -20° C. for 1 month with minimal loss of activity.)

[4] = tested on: B-cells isolated from PBMC's; experiment: Chymotrypsin-like ProteasomeGlo assay in B-cells isolated from PBMCs; format: cell-based, human; conditions: Homo sapiens; B-cells isolated from PBMC's; read-out: Pglo B-Cell
Text: PBMC's will be isolated from human blood followed by B-cell isolation from the PBMC's using the Miltenyi Isolation Kit. • 2. This experiment will use the Chymotrypsin-like ProteasomeGlo read-out to generate IC50's following compound treatment. • 3. Dilute all compounds 1:100 for the assay. • 4. […] Repeat the DMSO transfer with lane 12. • 5. Lane 12 should not be seeded with any cells. Only medium! • 6. For all steps, make sure the samples and reagents remain cool! • 7. While dealing with the buffy coats, be careful to not let any exposed skin to be in direct contact with the blood. […] PBMC isolation followed by B-cell isolation using the Miltenyi Kit • Day 2: B-cell plating, ECHO transfer and ProteasomeGlo assay For the initial steps and to make processing the buffy coats easier, separately process the buffy coats. • a. Cut the tube attached to the buffy coats carefully using a clean, sterile and fresh scalpel. • b. Transfer the blood into 2 individual 50 ml falcons. • c. Add an equal volume of DPBS to the blood in the falcons. • d. Add 20 ml of lymphocyte separating medium to two 50 ml falcons. • e. Carefully pour 15-20 ml of the blood+DPBS mix from step c. onto the lymphocyte separating medium from step d. • f. Centrifuge the falcons with the lymphocyte separating medium+blood mix at 800×g for 15 minutes using a swing-out rotor. • g. Following centrifugation, carefully remove the falcons from the centrifuge. • h. The following layers will be observed: • i. Aspirate the plasma layer off carefully without disturbing the different layers. • j. Remove the cell pellet using a pipette into two fresh 50 ml falcons. • k. Fill the falcons with the cells up to 50 ml with DPBS. • l. Centrifuge the falcons at 250×g for 10 minutes using a swing-out rotor (Brake-off). • m. Aspirate the complete DPBS off the cells without disturbing the cell pellet at the bottom of the falcon. • n. Re-suspend the cell pellet in 10 ml of 1×RBC lysis buffer. • o. Incubate the falcons at room temperature in the dark for 10 minutes. • p. After RBC lysis, centrifuge the tubes at 250×g for 10 minutes using a swing-out rotor (brake-off). • (*Note: If the cell pellet is still red or light red, repeat steps n. to p.!) • q. Re-suspend the cell pellet in DPBS up to 50 ml in the falcon. • r. Centrifuge the falcons at 250×g for 10 minutes using a swing-out rotor (Brake-off). • s. Aspirate the DPBS off the cells without disturbing the cell pellet at the bottom of the falcon. • t. Repeat the wash step as described in steps q. to s. 2× times more (total number of washes is 3×). • u. Aspirate the DPBS completely off the cell pellet after the last wash without disturbing the cell pellet. • v. Re-suspend the cell pellet in 20 ml of PBMC cell medium. • w. […] Re-suspend the pellet in volume of the B-cell isolation buffer calculated as follows: • k. Mix well using a 1 ml pipette and incubate the mix on ice for 20 mins. • l. In the meantime, equilibrate one LS Column as follows: • 1. Insert one LS Column into one slot of the separator as depicted in the pictures above. • 2. Place a 50 ml falcon at the bottom of the LS column to collect the wash flow-through. • 3. Add 3 ml of the B-cell isolation buffer into the column. • 4. Allow the buffer to flow-through making sure that the entire volume passes the column and that the column reservoir is empty before the addition of the cells. • 5. Remove the falcon with the flow-through and discard. • m. Place a fresh 50 ml falcon under the LS Column to collect the untouched B-cells isolated from the PBMCs. • n. Apply the entire volume of the cell+antibody+microbeads mix to the LS Column. • o. Collect the flow-through from each application of the mix into the same 50 ml falcon under the LS Column. • p. Once the complete volume of the cell+antibody+microbead mix has been passed through, proceed to washing of the column. • q. Add 3 ml of the B-cell isolation buffer to the LS Column and allow the buffer to flow-through. […]

[5] = tested on: MDA-MB-468 (breast carcinoma); experiment: 48 hr CTG viability assay, MDA-MB-468; format: cell-based; conditions: Homo sapiens
Method: A viability assay was conducted for 48 hours to evaluate the inhibition of cancer cell growth by proteasome inhibitors. Briefly, the candidate cell line was plated with a 96-well plate following density of cells, respectively. 6×10^3 Cells/well for A2780 (human ovarian cancer cell line) and MDA-MB-468 (breast carcinoma), 8×10^3 Cells/well for Hs746T (human gastric carcinoma cell line), 1.1×10^4 Cells/well for MM1 S and RPMI 8226 (multiple myeloma). After 24 hours, the cells were treated with various concentrations of the compound (ranging from 0.0015 uM to 10 uM). […] After 48 hours of incubation at 37° C., 5% CO2 incubator, cells were analyzed for viability using the CellTiter-Glo Luminescent Cell Viability assay (Promega, Cat #G7570). All viability assays were performed in duplicate and Luminescence was read using an Envision (Perkin Elmer, USA). Data were analyzed using XLfit software. […] (human gastric carcinoma cell line), MM1 S (B lymphoblast cell line), and RPMI 8226 (B lymphocyte cell line, multiple myeloma). Inhibition is indicated as IC50 [nM] (“-”=not measured).

[6] = tested on: Hs 746T (human gastric carcinoma cell line); experiment: 48 hr CTG viability assay, Hs 746T; format: cell-based; conditions: Hs746T, 48 hr CTG, read-out: Hs 746T IC50
How it was run: (§1)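 Growth inhibition by compound over 48 h; IC50 (nM) derived from duplicate CellTiter-Glo luminescence readings across 0.0015–10 uM.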

[7] = tested on: MM1 S (B lymphoblast cell line); experiment: 48 hr CTG viability assay, MM1S; format: cell-based; conditions: Homo sapiens, 48 hr CTG, read-out: MM1S IC50
How it was run: as §1

[8] = tested on: RPMI 8226 (B lymphocyte cell line, multiple myeloma); experiment: 48 hr CTG viability assay, RPMI 8226; format: cell-based; conditions: Homo sapiens, RPMI-8226; 48 hr CTG; read-out: RPMI-8226 IC50
How it was run: as §1

Measured: IC50

Cc1ccc2cc1CNC(=O)[C@H](CCc1ccccc1)NC(=O)CCCC(=O)N1CCCC(CCO2)C1 (stereo partly drawn) [Compound 19, (9S)-5^4-methyl-9-phenethyl-4-oxa-7,10-diaza-1(3,1)-piperidina-5(1,3)-benzenacyclopentadecaphane-8,11,15-trione]
500 to 1000 nM: Karpas cells
< 100 nM: [1] | [2]
1000 to 5000 nM: HT-29 cells | [3]

Cc1cc(C)c2cc1CNC(=O)[C@H](CCc1ccccc1)NC(=O)CCC(=O)N1CCCC(CCO2)C1 (stereo partly drawn) [Compound 59, (9R)-5^4,5^6-dimethyl-9-phenethyl-4-oxa-7,10-diaza-1(3,1)-piperidina-5(1,3)-benzenacyclotetradecaphane-8,11,14-trione]
100 to 500 nM: [4]
1000 to 5000 nM: HT-29 cells

Cc1ccc2cc1CNC(=O)[C@H](CCc1ccccc1)NC(=O)[C@@H](NC(=O)Cc1ccc(NC(=O)[C@@H](N)CCC(=O)O)cc1C)CC(=O)N1CCCC(CCO2)C1 (some centres unmarked) [Compound 574]
< 100 nM: [5] | [6] | [7] | [8]

Cc1ccc2cc1CNC(=O)[C@H](CCc1ccccc1)NC(=O)[C@@H](NC(=O)C(F)(F)CO)CC(=O)N1CCCC(CCO2)C1 (stereo partly drawn) [Compound 599, 2,2-difluoro-3-hydroxy-N-((9S,12S)-5^4-methyl-8,11,14-trioxo-9-phenethyl-4-oxa-7,10-diaza-1(3,1)-piperidina-5(1,3)-benzenacyclotetradecaphane-12-yl)propanamide]
not listed: HT-29 cells | Karpas cells | [4]
< 100 nM: all other assays above

Cc1ccc2cc1CNC(=O)[C@H](CCc1ccccc1)NC(=O)[C@@H](NC(=O)C1(CO)CC1)CC(=O)N1CCCC(CCO2)C1 (stereo partly drawn) [Compound 664, 1-(hydroxymethyl)-N-((9S,12S)-5^4-methyl-8,11,14-trioxo-9-phenethyl-4-oxa-7,10-diaza-1(3,1)-piperidina-5(1,3)-benzenacyclotetradecaphane-12-yl)cyclopropane-1-carboxamide]
not listed: HT-29 cells | Karpas cells | [4]
< 100 nM: all other assays above

Cc1ccc2cc1CNC(=O)[C@H](CCc1ccccc1)NC(=O)[C@@H](NC(=O)C1(CO)CCOCC1)CC(=O)N1CCCC(CCO2)C1 (stereo partly drawn) [Compound 671, 4-(hydroxymethyl)-N-((9S,12S)-5^4-methyl-8,11,14-trioxo-9-phenethyl-4-oxa-7,10-diaza-1(3,1)-piperidina-5(1,3)-benzenacyclotetradecaphane-12-yl)tetrahydro-2H-pyran-4-carboxamide]
not listed: HT-29 cells | Karpas cells | [4]
< 100 nM: all other assays above
